Measurements from ChEMBL document CHEMBL5625223 (Eur J Med Chem, 2023).
Calls of active or inactive are those of the source. The calls are words filed in the database; no cut-off is given here.

Assays:
[1] = target: T1, 5-hydroxytryptamine receptor 2C (Homo sapiens, UniProt P28335); test: Displacement of [3H]-Mesulergine from human 5-HT2C expressed in Flp-In-T-REx-293 cells assessed as inhibition constant incubated for 1 hr; format: cell-based; details: read-out: Ki
T1 sequence (P28335 whole entry): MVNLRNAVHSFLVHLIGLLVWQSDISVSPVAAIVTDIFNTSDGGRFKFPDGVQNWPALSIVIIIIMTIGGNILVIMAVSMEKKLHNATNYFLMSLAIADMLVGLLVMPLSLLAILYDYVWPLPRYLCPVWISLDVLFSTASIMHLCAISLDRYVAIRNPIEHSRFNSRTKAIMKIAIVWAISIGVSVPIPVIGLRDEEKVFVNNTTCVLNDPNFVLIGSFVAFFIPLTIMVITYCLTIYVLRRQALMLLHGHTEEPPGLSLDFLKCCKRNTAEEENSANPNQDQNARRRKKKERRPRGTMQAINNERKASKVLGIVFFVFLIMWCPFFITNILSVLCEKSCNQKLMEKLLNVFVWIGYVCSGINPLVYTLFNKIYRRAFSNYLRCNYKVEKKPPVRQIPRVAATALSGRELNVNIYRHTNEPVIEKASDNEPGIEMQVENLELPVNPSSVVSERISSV

[2] = target: T2, 5-hydroxytryptamine receptor 2A (Homo sapiens, UniProt P28223); test: Displacement of [3H]ketanserin from human 5-HT2A receptor expressed in HEK293 cells at 10 uM incubated for 1 hr relative to control; format: cell-based
[3] = target: Sodium-dependent dopamine transporter (Homo sapiens, UniProt Q01959); test: Binding affinity to DAT (unknown origin) assessed as inhibition constant
Adenosine receptor A3 = target: T3, Adenosine receptor A3 (Homo sapiens, UniProt P0DMS8); test: Displacement of […] from human A3AR expressed in HEK cells assessed as inhibition constant; format: cell-based
T3 sequence (P0DMS8 whole entry): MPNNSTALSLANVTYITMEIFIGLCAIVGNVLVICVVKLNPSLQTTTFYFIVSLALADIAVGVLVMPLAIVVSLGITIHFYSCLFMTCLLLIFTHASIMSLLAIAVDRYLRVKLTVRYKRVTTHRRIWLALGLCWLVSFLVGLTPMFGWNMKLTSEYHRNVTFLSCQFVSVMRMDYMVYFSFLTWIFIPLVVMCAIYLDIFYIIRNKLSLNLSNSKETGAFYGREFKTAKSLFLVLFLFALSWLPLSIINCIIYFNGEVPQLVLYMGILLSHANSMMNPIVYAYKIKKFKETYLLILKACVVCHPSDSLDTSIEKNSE

Adenosine receptor A1 = target: T4, Adenosine receptor A1 (Homo sapiens, UniProt P30542); test: Displacement of […] from human A1AR expressed in Flp-In-T-REx-293 cells assessed as inhibition constant; format: cell-based
T4 sequence (P30542 whole entry): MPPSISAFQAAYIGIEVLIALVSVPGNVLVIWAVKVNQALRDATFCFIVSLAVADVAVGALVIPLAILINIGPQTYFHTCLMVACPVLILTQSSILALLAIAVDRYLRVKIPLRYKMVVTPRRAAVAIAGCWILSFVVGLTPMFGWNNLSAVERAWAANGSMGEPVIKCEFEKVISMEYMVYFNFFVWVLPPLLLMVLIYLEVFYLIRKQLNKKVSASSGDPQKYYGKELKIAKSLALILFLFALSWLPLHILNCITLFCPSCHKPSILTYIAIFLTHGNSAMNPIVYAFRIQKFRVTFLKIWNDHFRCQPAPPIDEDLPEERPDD

[4] = target: Adenosine receptor A2a (Homo sapiens) (UniProt P29274); test: Displacement of […] from human A2AR expressed in HEK cells at 10 uM relative to control; format: cell-based
[5] = target: 5-hydroxytryptamine receptor 1D (Homo sapiens, UniProt P28221); test: Binding affinity to 5HT1D receptor (unknown origin) assessed as inhibition constant
Mu-type opioid receptor = Mu-type opioid receptor (Homo sapiens, UniProt P35372); test: Binding affinity to MOR (unknown origin) assessed as inhibition constant
[6] = target: T5, Alpha-2C adrenergic receptor (Homo sapiens, UniProt P18825); test: Binding affinity to alpha2C receptor (unknown origin) assessed as inhibition constant
T5 sequence (P18825 whole entry): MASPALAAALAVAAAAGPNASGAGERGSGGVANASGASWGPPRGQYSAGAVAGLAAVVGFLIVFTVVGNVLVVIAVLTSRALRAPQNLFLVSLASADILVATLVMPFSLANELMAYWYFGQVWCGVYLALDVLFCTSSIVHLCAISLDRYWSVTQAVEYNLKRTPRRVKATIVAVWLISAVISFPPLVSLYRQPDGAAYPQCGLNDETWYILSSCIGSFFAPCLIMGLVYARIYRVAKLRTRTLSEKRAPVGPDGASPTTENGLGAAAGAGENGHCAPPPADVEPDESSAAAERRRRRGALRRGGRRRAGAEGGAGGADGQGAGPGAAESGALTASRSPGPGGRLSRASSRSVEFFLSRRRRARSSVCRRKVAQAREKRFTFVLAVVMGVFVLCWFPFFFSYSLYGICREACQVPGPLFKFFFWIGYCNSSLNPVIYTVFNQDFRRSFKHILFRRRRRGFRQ

[7] = target: T2, 5-hydroxytryptamine receptor 2A; test: Displacement of [3H]ketanserin from human 5-HT2A receptor expressed in HEK293 cells at 10 uM incubated for 1 hr; format: cell-based
[8] = target: T2, 5-hydroxytryptamine receptor 2A; test: Binding affinity to 5HT2A receptor (unknown origin) at 10 uM relative to control
[9] = target: T6, 5-hydroxytryptamine receptor 2B (Homo sapiens, UniProt P41595); test: Binding affinity to 5HT2B receptor (unknown origin) assessed as inhibition constant
[10] = target: T7, Adenosine receptor A1 (Homo sapiens) (UniProt P30542); test: Binding affinity to A1AR (unknown origin) at 10 uM relative to control; details: filed as agonist
T7 sequence (whole entry): T4 sequence (P30542 whole entry)

[11] = target: T1, 5-hydroxytryptamine receptor 2C; test: Binding affinity to 5HT2C receptor (unknown origin) assessed as inhibition constant
Homo sapiens = organism: Homo sapiens; test: Selectivity ratio of Kb for antagonist activity at human 5HT2B receptor to Kb for antagonist activity at human 5HT2C receptor
[12] = target: T6, 5-hydroxytryptamine receptor 2B; test: Agonist activity at human 5HT2B receptor expressed in human Flp-In-293 cells assessed as Gq-mediated calcium flux measured for 60 mins by BRET assay; format: functional, cell-based
[13] = target: T8, 5-hydroxytryptamine receptor 2C (Homo sapiens) (UniProt P28335); details: Flp-In-T-REx-293, filed as antagonist, time 1.0 hrs
T8 sequence (whole entry): T1 sequence (P28335 whole entry)

[14] = target: T9, Adenosine receptor A3 (Homo sapiens) (UniProt P0DMS8); test: Displacement of […] from human A3AR expressed in HEK cells at 10 uM relative to control; format: cell-based; details: filed as agonist
T9 sequence (whole entry): T3 sequence (P0DMS8 whole entry)

[15] = target: T6, 5-hydroxytryptamine receptor 2B; test: Displacement of [3H]-LSD from human 5-HT2B receptor expressed in HEK cells assessed as inhibition constant incubated for 1 hr; format: cell-based
[16] = target: T2, 5-hydroxytryptamine receptor 2A; details: Flp-In-T-REx-293, time 1.0 hrs
[17] = target: T6, 5-hydroxytryptamine receptor 2B; details: Flp-In-T-REx-293, filed as antagonist, time 1.0 hrs
[18] = target: T6, 5-hydroxytryptamine receptor 2B; test: Agonist activity at human 5HT2B receptor expressed in human Flp-In-293 cells assessed as beta-arrestin2 recruitment measured for 60 mins by BRET assay; format: functional, cell-based
[19] = target: T6, 5-hydroxytryptamine receptor 2B; test: Agonist activity at human 5HT2B receptor expressed in human Flp-In-293 cells assessed as beta-arrestin1 recruitment measured for 60 mins by BRET assay; format: functional, cell-based
[20] = target: T10, Alpha-2B adrenergic receptor (Homo sapiens, UniProt P18089); test: Binding affinity to alpha2B receptor (unknown origin) assessed as inhibition constant
T10 sequence (P18089 whole entry): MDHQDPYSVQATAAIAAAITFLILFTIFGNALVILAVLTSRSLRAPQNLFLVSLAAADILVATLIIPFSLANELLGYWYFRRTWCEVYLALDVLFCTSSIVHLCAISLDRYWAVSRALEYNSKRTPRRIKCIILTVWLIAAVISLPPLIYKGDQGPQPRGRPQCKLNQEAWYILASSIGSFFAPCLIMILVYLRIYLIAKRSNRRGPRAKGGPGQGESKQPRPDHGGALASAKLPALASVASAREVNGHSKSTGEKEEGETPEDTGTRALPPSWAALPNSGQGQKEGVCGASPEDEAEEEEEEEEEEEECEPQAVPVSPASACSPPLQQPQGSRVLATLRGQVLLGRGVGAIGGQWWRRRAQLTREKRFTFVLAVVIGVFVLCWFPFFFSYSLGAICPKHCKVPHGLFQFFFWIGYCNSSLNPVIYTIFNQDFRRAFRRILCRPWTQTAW

[21] = target: T8, 5-hydroxytryptamine receptor 2C (Homo sapiens); test: Displacement of [3H]-Mesulergine from human 5-HT2C expressed in Flp-In-T-REx-293 cells at 10 uM incubated for 1 hr relative to control; format: cell-based; details: filed as antagonist
[22] = target: Beta-3 adrenergic receptor (Homo sapiens, UniProt P13945); test: Binding affinity to beta3 adrenergic receptor (unknown origin) assessed as inhibition constant
Chain of Beta-3 adrenergic receptor (P13945 whole entry): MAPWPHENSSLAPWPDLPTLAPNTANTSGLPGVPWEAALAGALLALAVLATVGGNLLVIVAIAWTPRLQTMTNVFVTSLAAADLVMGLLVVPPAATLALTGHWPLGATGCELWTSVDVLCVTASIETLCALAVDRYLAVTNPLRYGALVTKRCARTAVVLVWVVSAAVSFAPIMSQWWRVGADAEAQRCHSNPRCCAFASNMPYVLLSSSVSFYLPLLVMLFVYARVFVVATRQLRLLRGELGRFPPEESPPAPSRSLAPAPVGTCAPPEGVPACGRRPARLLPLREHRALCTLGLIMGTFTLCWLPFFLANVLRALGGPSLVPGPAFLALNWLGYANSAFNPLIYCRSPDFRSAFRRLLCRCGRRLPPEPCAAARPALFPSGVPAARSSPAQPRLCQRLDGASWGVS

Chain of Adenosine receptor A2a (Homo sapiens) (P29274 whole entry): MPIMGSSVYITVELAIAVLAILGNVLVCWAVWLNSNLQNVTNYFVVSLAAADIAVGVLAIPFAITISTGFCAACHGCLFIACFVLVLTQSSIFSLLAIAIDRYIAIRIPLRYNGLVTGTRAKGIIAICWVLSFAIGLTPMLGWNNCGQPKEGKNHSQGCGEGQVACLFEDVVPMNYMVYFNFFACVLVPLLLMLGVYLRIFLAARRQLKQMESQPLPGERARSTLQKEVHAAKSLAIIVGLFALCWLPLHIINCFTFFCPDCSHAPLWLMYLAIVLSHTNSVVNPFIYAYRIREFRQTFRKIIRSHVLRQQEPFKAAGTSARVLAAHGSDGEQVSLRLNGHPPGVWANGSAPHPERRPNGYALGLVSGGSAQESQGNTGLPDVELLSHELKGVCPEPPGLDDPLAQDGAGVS
T6 sequence (P41595 whole entry): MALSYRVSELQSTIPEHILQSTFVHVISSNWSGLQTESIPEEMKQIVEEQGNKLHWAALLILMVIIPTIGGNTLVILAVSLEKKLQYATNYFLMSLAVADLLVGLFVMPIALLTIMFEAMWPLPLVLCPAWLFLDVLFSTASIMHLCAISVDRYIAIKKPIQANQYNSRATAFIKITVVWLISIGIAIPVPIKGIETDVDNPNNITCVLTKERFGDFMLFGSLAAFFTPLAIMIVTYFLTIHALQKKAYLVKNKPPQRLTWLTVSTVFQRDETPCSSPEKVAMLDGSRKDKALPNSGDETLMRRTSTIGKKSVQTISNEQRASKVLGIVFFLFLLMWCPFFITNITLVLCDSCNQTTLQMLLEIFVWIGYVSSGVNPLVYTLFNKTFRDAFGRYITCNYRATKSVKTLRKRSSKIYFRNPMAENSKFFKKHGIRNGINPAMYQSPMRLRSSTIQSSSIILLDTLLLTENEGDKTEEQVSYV
T2 sequence (P28223 whole entry): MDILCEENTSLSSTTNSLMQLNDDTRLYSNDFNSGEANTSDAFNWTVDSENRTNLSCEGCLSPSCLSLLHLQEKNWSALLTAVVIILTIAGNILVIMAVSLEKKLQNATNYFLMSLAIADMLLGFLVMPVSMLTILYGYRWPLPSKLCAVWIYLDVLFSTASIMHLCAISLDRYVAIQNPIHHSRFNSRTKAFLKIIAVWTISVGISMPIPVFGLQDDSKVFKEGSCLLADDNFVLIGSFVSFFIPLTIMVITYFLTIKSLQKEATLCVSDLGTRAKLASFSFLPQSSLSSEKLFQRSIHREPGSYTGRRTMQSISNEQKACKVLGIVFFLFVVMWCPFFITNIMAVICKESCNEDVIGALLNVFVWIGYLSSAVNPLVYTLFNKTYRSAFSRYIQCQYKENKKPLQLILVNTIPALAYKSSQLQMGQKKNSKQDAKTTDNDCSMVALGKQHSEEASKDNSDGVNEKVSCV
Chain of Sodium-dependent dopamine transporter (Q01959 whole entry): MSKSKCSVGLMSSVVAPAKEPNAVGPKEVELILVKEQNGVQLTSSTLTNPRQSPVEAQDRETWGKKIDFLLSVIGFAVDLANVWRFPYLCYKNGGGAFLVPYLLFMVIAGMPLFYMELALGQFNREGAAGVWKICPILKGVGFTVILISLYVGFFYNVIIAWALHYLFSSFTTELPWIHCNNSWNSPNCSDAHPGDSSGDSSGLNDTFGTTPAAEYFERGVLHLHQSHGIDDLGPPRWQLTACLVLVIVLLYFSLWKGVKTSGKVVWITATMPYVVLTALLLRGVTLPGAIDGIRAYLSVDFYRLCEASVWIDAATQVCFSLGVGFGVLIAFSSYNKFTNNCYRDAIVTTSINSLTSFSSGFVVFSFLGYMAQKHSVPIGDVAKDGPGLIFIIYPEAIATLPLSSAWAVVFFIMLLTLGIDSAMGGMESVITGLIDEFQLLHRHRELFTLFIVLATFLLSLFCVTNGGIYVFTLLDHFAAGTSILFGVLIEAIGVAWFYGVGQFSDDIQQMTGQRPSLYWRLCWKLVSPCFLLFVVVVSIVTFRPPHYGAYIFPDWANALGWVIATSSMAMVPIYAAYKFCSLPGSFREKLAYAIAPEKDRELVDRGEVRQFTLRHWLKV
Chain of Mu-type opioid receptor (P35372 whole entry): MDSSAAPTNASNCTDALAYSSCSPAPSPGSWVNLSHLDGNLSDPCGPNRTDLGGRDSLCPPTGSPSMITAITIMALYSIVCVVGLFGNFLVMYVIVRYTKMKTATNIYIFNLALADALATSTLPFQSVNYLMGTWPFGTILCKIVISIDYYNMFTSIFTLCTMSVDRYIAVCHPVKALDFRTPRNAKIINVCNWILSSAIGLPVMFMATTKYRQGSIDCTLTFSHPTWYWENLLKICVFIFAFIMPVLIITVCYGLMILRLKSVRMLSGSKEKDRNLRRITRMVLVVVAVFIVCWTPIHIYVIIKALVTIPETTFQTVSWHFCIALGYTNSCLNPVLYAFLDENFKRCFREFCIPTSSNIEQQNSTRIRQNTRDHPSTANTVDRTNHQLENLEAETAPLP
Chain of 5-hydroxytryptamine receptor 1D (P28221 whole entry): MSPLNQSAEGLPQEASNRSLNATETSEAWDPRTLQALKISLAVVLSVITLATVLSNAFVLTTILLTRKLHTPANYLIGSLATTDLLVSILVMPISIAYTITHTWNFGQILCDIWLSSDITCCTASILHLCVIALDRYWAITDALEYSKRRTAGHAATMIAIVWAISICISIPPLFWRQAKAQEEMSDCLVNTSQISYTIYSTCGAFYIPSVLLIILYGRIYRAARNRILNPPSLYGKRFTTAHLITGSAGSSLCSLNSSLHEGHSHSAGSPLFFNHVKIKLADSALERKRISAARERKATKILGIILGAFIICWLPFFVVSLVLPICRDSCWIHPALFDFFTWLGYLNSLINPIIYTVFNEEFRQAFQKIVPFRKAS

O[C@H]1[C@H](n2cnc3c(NC(C4CCCC4)C4CCCC4)nc(Cl)nc32)[C@H]2C[C@@]2(CF)[C@H]1O
Ki [1]: 580 nM
Activity [2]: 36%
Ki [3]: 7900 nM
Ki (Adenosine receptor A3): 7200 nM
Ki (Adenosine receptor A1): 1620 nM
Activity [4]: 21%

O[C@H]1[C@H](n2cnc3c(NC(C4CCCC4)C4CCCC4)nc(Cl)nc32)[C@H]2C[C@@]2(CCl)[C@H]1O
Ki [5]: 6500 nM
Ki (Mu-type opioid receptor): 5700 nM
Ki (Adenosine receptor A3): 8260 nM
Ki [6]: 2500 nM
Ki (Adenosine receptor A1): 529 nM
Ki [7]: 6470 nM
Activity [4]: 36%

O[C@H]1[C@H](n2cnc3c(NC(C4CCC4)C4CCC4)nc(Cl)nc32)[C@H]2C[C@@]2(CSc2ccccc2F)[C@H]1O
Activity [8]: 21%
Ki [9]: 601 nM
Activity [10]: 45%
Ki [11]: 1250 nM

OC[C@@]12C[C@@H]1[C@@H](n1cnc3c(NC(C4CCCC4)C4CCCC4)nc(Cl)nc31)[C@H](O)[C@@H]2O
Activity [2]: 1%
Ki [3]: 3900 nM
Activity [4]: -12%

CCOC(=O)[C@@]12C[C@@H]1[C@@H](n1cnc3c(N[C@H](C4CCC4)C4CC4)nc(I)nc31)[C@H](O)[C@@H]2O
Ratio (Homo sapiens): 44.7
Activity [12]: inactive
Ki [1]: 331 nM
Activity [2]: 13%
pKb [13]: 7.11
Activity [14]: 83%
Ki [15]: 33 nM
pKb [16]: < 5
pKb [17]: 8.76
Ki (Adenosine receptor A1): 2180 nM
Activity [18]: inactive
Activity [4]: 15%
Activity [19]: inactive

CSC[C@@]12C[C@@H]1[C@@H](n1cnc3c(NC(C4CCCC4)C4CCCC4)nc(SC)nc31)[C@H](O)[C@@H]2O
Ki [20]: 1200 nM
Ki [15]: 222 nM
Ki (Adenosine receptor A3): 6620 nM
Activity [21]: 49%
Ki [7]: 9300 nM
Activity [4]: -60%

COc1ccc(SC[C@@]23C[C@@H]2[C@@H](n2cnc4c(NC(C5CCCC5)C5CCCC5)nc(Cl)nc42)[C@H](O)[C@@H]3O)cc1OC
Ki [1]: 368 nM
Activity [2]: 25%
Activity [14]: 78%
Ki [22]: 2100 nM
Ki [15]: 256 nM
Activity [4]: 19%
